Reference: patent publication US20090203753A1, “7-(2-amino-1-hydroxy-ethyl)-4-hydroxybenzothiazol-2(3H)-one-derivatives as beta2 adrenoreceptor agonists” (AstraZeneca AB, priority 2005, published 2009)
Counter-ions that a name gives are not always drawn.

Assays:
β2 receptor [1] = target: T1, β2 receptor (Homo sapiens, UniProt P07550); assay: β2 mediated cAMP production in H292 cells, AlphaScreen cAMP detection (10 minutes with test compound); type: cell-based; settings: for EC50: cAMP, 10 minutes incubation with compound, 300 μM rolipram; for Intrinsic Activity: fraction relative to the maximum activity determined for formoterol, 10 minutes incubation
T1 construct: endogenous in cells; host or cells: H292 cells
Experimental: H292 cells were grown in RPMI (Roswell Park Memorial Institute) medium containing, 10% (v/v) FBS (foetal bovine serum) and 2 mM L-glutamine. Cells were grown in 225 cm2 flasks containing 25 mL media in a humidified incubator at 37° C., 5% CO2. Cells were harvested from the flask and passaged at a 1 in 10 dilution once per week.
The media from flasks containing H292 cells was removed, rinsed with 10 mL PBS (phosphate buffered saline) and replaced with 10 mL Accutase™ cell detachment solution. Flasks were incubated for 15 minutes in a humidified incubator at 37° C., 5% CO2. The cell suspension was counted and the cells re-suspended in RPMI media (containing 10% (v/v) FBS and 2 mM L-glutamine) at 0.05×10^6 cells per mL. 5000 cells in 100 μL were added to each well of a tissue-culture-treated 96-well plate and the cells incubated overnight in a humidified incubator at 37° C., 5% CO2. The culture media was removed, washed twice with 100 μL assay buffer and replaced with 50 μL assay buffer. Cells were rested at room temperature for 20 minutes after which time 25 μL of rolipram (1.2 mM made up in assay buffer containing 2.4% (v/v) dimethylsulphoxide) was added. Cells were incubated with rolipram for 10 minutes after which time test compounds (made up as ×4 concentrated stocks in assay buffer containing 4% (v/v) dimethylsulphoxide) were added and the cells were incubated for 10 minutes at room temperature. Final rolipram concentration in the assay was 300 μM and final vehicle concentration was 1.6% (v/v) dimethylsulphoxide. The reaction was stopped by removing supernatants, washing once with 100 μL assay buffer and replacing with 50 μL lysis buffer. The cell monolayer was frozen at −80° C. for 30 minutes (or overnight).
(§1) The concentration of cAMP (cyclic adenosine monophosphate) in the cell lysate was determined using the AlphaScreen™ methodology. The frozen cell plate was thawed for 20 minutes on a plate shaker then 10 μL of the cell lysate was transferred to a 96-well white plate. 40 μL of mixed AlphaScreen™ detection beads (containing equal volumes of donor beads (pre-incubated with biotinylated cAMP in the dark for 30 minutes) and acceptor beads), was added to each well and the plate incubated at room temperature for 10 hours in the dark. The AlphaScreen™ signal was measured using an EnVision spectrophotometer (Perkin-Elmer Inc.) with the recommended manufacturer's settings. cAMP concentrations were determined by reference to a calibration curve determined in the same experiment using standard cAMP concentrations (made up in lysis buffer in a 96-well tissue-culture-treated plate and frozen/thawed alongside the test samples) and detected using the same protocol. Concentration response curves for agonists were constructed to determine both the pEC50 and Intrinsic Activity.

β2 receptor [2] = target: T1, β2 receptor; assay: Alternative adrenergic β2 mediated cAMP production in H292 cells (60 minutes with test compound); type: cell-based; settings: for EC50: cAMP, 60 minutes incubation with compound, 300 μM rolipram, read-out: β2 pEC50 (converted); for β2 Int Act: fraction relative to the maximum activity determined for formoterol, 60 minutes incubation
Experimental: Alternative Adrenergic (β2 Mediated cAMP Production
H292 cells were grown in 225 cm2 flasks incubator at 37° C., 5% CO2 in RPMI medium containing, 10% (v/v) FBS (foetal bovine serum) and 2 mM L-glutamine.
Adherent H292 cells were removed from tissue culture flasks by treatment with Accutase™ cell detachment solution for 15 minutes. Flasks were incubated for 15 minutes in a humidified incubator at 37° C., 5% CO2. Detached cells were re-suspended in RPMI media (containing 10% (v/v) FBS and 2 mM L-glutamine) at 0.05×10^6 cells per mL. 5000 cells in 100 μL were added to each well of a tissue-culture-treated 96-well plate and the cells incubated overnight in a humidified incubator at 37° C., 5% CO2. The culture media was removed and cells were washed twice with 100 μL assay buffer and replaced with 50 μL assay buffer (HBSS solution containing 10 mM HEPES pH7.4 and 5 mM glucose). Cells were rested at room temperature for 20 minutes after which time 25 μL of rolipram (1.2 mM made up in assay buffer containing 2.4% (v/v) dimethylsulphoxide) was added. Cells were incubated with rolipram for 10 minutes after which time test compounds were added and the cells were incubated for 60 minutes at room temperature. The final rolipram concentration in the assay was 300 μM and final vehicle concentration was 1.6% (v/v) dimethylsulphoxide. The reaction was stopped by removing supernatants, washing once with 100 μL assay buffer and replacing with 50 μL lysis buffer. The cell monolayer was frozen at −80° C. for 30 minutes (or overnight).
as §1, with “using” for “using the”, “pre-incubated” for “(containing equal volumes of donor beads (pre-incubated”, “cAMP,” for “cAMP in the dark for 30 minutes) and acceptor beads),”, “concentrations.” for “concentrations (made up in lysis buffer in a 96-well tissue-culture-treated plate and frozen/thawed alongside the test samples) and detected using the same protocol.”, “constructed and data was fitted to a four parameter logistic equation” for “constructed”, “Activity. […]” for “Activity.”

[3] = target: T2, recombinant human α1D receptor (Homo sapiens, UniProt P25100); assay: Adrenergic α1D selectivity assay, [3H]-prazosin binding to HEK293 membranes; settings: read-out: α1 bind pIC50 (converted)
T2 construct: expressed in transfected cells; host or cells: HEK293
T2 sequence (P25100 1-572): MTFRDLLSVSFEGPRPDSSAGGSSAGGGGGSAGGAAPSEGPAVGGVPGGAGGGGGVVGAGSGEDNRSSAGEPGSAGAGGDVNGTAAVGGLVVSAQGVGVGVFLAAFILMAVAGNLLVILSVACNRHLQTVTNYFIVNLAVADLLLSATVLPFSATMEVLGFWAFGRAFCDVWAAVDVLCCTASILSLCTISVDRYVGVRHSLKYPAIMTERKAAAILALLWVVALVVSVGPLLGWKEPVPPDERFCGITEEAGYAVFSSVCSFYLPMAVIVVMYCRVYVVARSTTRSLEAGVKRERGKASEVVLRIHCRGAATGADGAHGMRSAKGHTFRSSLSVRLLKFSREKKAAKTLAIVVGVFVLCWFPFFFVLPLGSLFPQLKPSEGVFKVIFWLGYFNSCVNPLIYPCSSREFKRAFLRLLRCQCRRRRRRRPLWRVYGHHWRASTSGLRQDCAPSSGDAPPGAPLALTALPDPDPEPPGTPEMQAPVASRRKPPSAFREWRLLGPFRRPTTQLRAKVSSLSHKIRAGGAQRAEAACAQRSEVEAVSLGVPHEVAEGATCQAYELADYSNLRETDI
Experimental: Membranes were prepared from human embryonic kidney 293 (HEK293) cells expressing recombinant human α1D receptor. These were diluted in Assay Buffer (50 mM HEPES, 1 mM EDTA, 0.1% gelatin, pH 7.4) to provide a final concentration of membranes that gave a clear window between maximum and minimum specific binding.
(§2) Assays were performed in U-bottomed 96-well polypropylene plates. 10 μL [^3H]-prazosin (0.3 nM final concentration) and 10 μL of test compound (10× final concentration) were added to each test well. For each assay plate 8 replicates were obtained for [^3H]-prazosin binding in the presence of 10 μL vehicle (10% (v/v) DMSO in Assay Buffer; defining maximum binding) or 10 μL BMY7378 (10 μM final concentration; defining non-specific binding (NSB)). Membranes were then added to achieve a final volume of 100 μL. The plates were incubated for 2 hours at room temperature and then filtered onto PEI coated GF/B filter plates, pre-soaked for 1 hour in Assay Buffer, using a 96-well plate Tomtec cell harvester. Five washes with 250 μL wash buffer (50 mM HEPES, 1 mM EDTA, pH 7.4) were performed at 4° C. to remove unbound radioactivity. The plates were dried then sealed from underneath using Packard plate sealers and MicroScint-O (50 μL) was added to each well. The plates were sealed (TopSeal A) and filter-bound radioactivity was measured with a scintillation counter (TopCount, Packard BioScience) using a 3-minute counting protocol.
(§3) Total specific binding (B0) was determined by subtracting the mean NSB from the mean maximum binding. NSB values were also subtracted from values from all other wells.

[4] = target: T3, recombinant human adrenergic beta 1 receptors (Homo sapiens, UniProt P08588); assay: Adrenergic β1 selectivity assay, [125I]-Iodocyanopindolol binding to membranes; settings: inhibition of [125I]-Iodocyanopindolol binding (0.036 nM); read-out: β1 bind pIC50 (converted)
T3 construct: purchased Euroscreen
Experimental: (§4) Membranes containing recombinant human adrenergic beta 1 receptors were obtained from Euroscreen. These were diluted in Assay Buffer (50 mM HEPES, 1 mM EDTA, 120 mM NaCl, 0.1% gelatin, pH 7.4) to provide a final concentration of membranes that gave a clear window between maximum and minimum specific binding.
as §2, with “[^125I]-Iodocyanopindolol (0.036” for “[^3H]-prazosin (0.3”, “[^125I]-Iodocyanopindolol” for “[^3H]-prazosin”, “Propranolol” for “BMY7378”, “EDTA, 120 mM NaCl,” for “EDTA,”
as §3

[5] = target: T4, recombinant human Dopamine Subtype D2s receptors (Homo sapiens, UniProt P14416); assay: Dopamine D2 selectivity assay, [3H]-spiperone binding to membranes; settings: read-out: D2 bind pIC50 (converted)
T4 construct: purchased Perkin Elmer
Experimental: as §4, with “human Dopamine Subtype D2s” for “human adrenergic beta 1”, “from Perkin Elmer.” for “from Euroscreen.”, “[…]” for “1 mM”
Assays were performed in U-bottomed 96-well polypropylene plates. 30 μL [^3H]-spiperone (0.16 nM final concentration) and 30 μL of test compound (10× final concentration) were added to each test well. For each assay plate 8 replicates were obtained for [^3H]-spiperone binding in the presence of 30 μL vehicle (10% (v/v) DMSO in Assay Buffer; defining maximum binding) or 30 μL Haloperidol (10 μM final concentration; defining non-specific binding (NSB)). Membranes were then added to achieve a final volume of 300 μL. The plates were incubated for 2 hours at room temperature and then filtered onto PEI coated GF/B filter plates, pre-soaked for 1 hour in Assay Buffer, using a 96-well plate Tomtec cell harvester. Five washes with 250 μL wash buffer (50 mM HEPES, 1 mM EDTA, 120 mM NaCl, pH 7.4) were performed at 4° C. to remove unbound radioactivity. The plates were dried then sealed from underneath using Packard plate sealers and MicroScint-O (50 μL) was added to each well. The plates were sealed (TopSeal A) and filter-bound radioactivity was measured with a scintillation counter (TopCount, Packard BioScience) using a 3-minute counting protocol.
as §3

T3 sequence (P08588 whole entry): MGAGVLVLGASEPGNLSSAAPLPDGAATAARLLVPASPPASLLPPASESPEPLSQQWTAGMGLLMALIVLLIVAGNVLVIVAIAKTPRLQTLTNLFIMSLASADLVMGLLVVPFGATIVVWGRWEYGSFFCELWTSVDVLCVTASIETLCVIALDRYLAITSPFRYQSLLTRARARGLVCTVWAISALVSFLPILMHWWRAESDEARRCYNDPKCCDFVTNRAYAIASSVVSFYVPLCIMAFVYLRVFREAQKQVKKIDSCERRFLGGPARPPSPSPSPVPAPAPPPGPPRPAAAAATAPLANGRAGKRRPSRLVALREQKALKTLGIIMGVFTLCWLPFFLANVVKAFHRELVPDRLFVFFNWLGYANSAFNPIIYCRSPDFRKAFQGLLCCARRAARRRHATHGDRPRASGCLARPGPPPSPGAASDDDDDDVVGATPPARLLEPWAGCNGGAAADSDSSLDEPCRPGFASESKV
T1 sequence (P07550 whole entry): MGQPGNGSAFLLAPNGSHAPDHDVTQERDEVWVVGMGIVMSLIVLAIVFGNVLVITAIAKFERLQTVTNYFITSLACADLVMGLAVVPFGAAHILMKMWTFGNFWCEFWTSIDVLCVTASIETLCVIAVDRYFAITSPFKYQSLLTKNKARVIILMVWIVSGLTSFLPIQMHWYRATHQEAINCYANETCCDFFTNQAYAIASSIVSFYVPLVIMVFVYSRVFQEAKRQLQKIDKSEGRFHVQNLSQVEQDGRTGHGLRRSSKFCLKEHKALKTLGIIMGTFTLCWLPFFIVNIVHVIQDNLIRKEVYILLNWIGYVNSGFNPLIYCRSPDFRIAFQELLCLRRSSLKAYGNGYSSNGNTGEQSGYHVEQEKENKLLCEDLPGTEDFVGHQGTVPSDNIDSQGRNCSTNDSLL
T4 sequence (P14416 1-414 isoform P14416-2): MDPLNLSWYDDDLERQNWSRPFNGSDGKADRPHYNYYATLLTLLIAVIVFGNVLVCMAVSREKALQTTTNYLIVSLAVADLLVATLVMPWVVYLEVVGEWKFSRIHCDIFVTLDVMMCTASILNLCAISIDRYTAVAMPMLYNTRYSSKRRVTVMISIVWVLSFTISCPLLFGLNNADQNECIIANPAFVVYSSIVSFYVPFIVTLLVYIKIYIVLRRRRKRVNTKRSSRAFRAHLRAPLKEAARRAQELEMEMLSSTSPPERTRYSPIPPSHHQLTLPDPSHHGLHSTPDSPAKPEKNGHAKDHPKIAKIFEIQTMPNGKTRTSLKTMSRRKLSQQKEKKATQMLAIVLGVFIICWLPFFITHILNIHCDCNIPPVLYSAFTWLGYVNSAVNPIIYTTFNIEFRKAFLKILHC

| SMILES | EC50 (β2 receptor [1]) [nM] | Intrinsic Activity (β2 receptor [1]) | EC50 (β2 receptor [2]) [nM] | β2 Int Act (β2 receptor [2]) | IC50 [3] [nM] | IC50 [4] [nM] | IC50 [5] [nM] |
| --- | --- | --- | --- | --- | --- | --- | --- |
| O=C(CCOCCc1ccccc1)N(CCNC[C@H](O)c1ccc(O)c2[nH]c(=O)sc12)CCc1ccccc1 [Example 4, N-(2-{[(2R)-2-Hydroxy-2-(4-hydroxy-2-oxo-2,3-dihydro-1,3-benzothiazol-7-yl)ethyl]amino}ethyl)-3-(2-phenylethoxy)-N-(2-phenylethyl)propanamide] | 1.26 | 1.1 | 1.26 | 0.9 |  | 3.16 |  |
| CN(CCNC[C@H](O)c1ccc(O)c2[nH]c(=O)sc12)C(=O)CCOCCc1ccccc1 [Example 5, N-(2-{[(2R)-2-Hydroxy-2-(4-hydroxy-2-oxo-2,3-dihydro-1,3-benzothiazol-7-yl)ethyl]amino}ethyl)-N-methyl-3-(2-phenylethoxy)propanamide Trifluoroacetate] | 0.316 | 1.0 | 0.2 | 1 |  | 12.6 |  |
| CCN(CC)CCN(CCNC[C@H](O)c1ccc(O)c2[nH]c(=O)sc12)C(=O)CCOCCc1cccc2ccccc12 [Example 6, N-[2-(Diethylamino)ethyl]-N-(2-{[(2R)-2-hydroxy-2-(4-hydroxy-2-oxo-2,3-dihydro-1,3-benzothiazol-7-yl)ethyl]amino}ethyl)-3-[2-(1-naphthyl)ethoxy]propanamide] |  |  | 2 | 0.9 | 2510 | 631 | 2510 |

Now from value to molecule:

| EC50 (β2 receptor [1]) [nM] | Intrinsic Activity (β2 receptor [1]) | EC50 (β2 receptor [2]) [nM] | β2 Int Act (β2 receptor [2]) | IC50 [3] [nM] | IC50 [4] [nM] | IC50 [5] [nM] | SMILES |
| --- | --- | --- | --- | --- | --- | --- | --- |
| 20 | 0.7 |  |  |  |  |  | CCCCN(CCNC[C@H](O)c1ccc(OCc2ccccc2)c2[nH]c(=O)sc12)C(=O)CCOCCc1ccccc1 [Example 1, N-[2-[2-(4-Benzyloxy-2-oxo-3H-benzothiazol-7-yl)-(2R)-2-hydroxy-ethyl]aminoethyl]-N-butyl-3-phenethyloxy-propanamide] |
|  |  | 1 | 0.9 | 2510 | 6.31 | > 10000 | CCCCN(CCNC[C@H](O)c1ccc(O)c2[nH]c(=O)sc12)C(=O)CCOCCc1ccccc1.Cl [Example 2, N-Butyl-N-(2-{[(2R)-2-hydroxy-2-(4-hydroxy-2-oxo-2,3-dihydro-1,3-benzothiazol-7-yl)ethyl]amino}ethyl)-3-(2-phenylethoxy)propanamide Hydrochloride] |
